Values quoted from earlier work as cited in patent US6409991B1, “Treatment and system for nicotine withdrawal” (priority 1999, dated 2002).

For CN1CCCC1c1cccnc1 (stereo not shown) [nicotine], the plasma half-life is given as “approximately two”.
